# Test results from US8546377B2 (AbbVie Inc., priority 2009, dated 2013).
# Molecular target: T1, h-5-HT6 receptor (Homo sapiens, UniProt P50406)
# T1 construct: expressed in transfected cells; host or cells: HEK293 cells (membrane preparation)
# Test: Human 5-HT6 receptor radioligand binding assay ([3H]-LSD, HEK293 membranes)
# Settings: HEK293 membranes, 1 nM [3H]-lysergic acid diethylamide, 3.5 hours at room temperature; read-out: Ki (μM), 5-HT6 Agonist Site Radioligand Binding
# Protocol: (iv) Human 5-HT6 Receptor Radioligand Binding Assay
# Preparation of Membranes by Ultrasonic Treatment and Differential Centrifugation
# Cells from stable clonal cell lines expressing the corresponding receptor (5-HT6) were washed with PBS (without Ca^++, Mg^++) and harvested in PBS with 0.02% EDTA. The cells were collected by centrifugation at 500 g for 10 minutes at 4° C., washed with PBS and centrifuged (500 g, 10 minutes at 4° C.). The pellets were stored at −80° C. until use. For membrane preparation, the thawed cell pellet was resuspended in ice-cold sucrose buffer (0.25 M sucrose, 10 mM HEPES (pH 7.4), 1 mM phenylmethylsulfonyl fluoride (PMSF) in DMSO, 5 μg/ml Pepstatin-A, 3 mM EDTA, 0.025% Bacitracin) and homogenized with a Branson Sonifier W-250 (Settings: Timer 4; Output Control 3; Duty Cycle constant; 2 to 3 cycles). Cell disruption was checked with the aid of a microscope. Remaining unbroken cells were pelleted at 1,000 g for 10 minutes at 4° C. The sucrose buffer supernatant was then centrifuged at 60,000 g for 1 hour at 4° C. (Beckman Ultrazentrifuge XL 80). The pellet was resuspended in 30 mL of ice-cold Tris buffer (20 mM TRIS (pH 7.4), 5 μg/mL Pepstatin A, 0.1 mM PMSF, 3 mM EDTA) by pipetting through a 10 mL serological pipet and centrifuged for 1 hour at 4° C. at 60,000 g. A final resuspension was performed in a small volume of ice-cold Tris buffer (see above) by pressing through a serological pipet followed by ultrasonic treatment with a Branson Sonifier W-250 (Settings: Timer 1; Output Control 3; Duty Cycle constant; 1 cycle). Protein concentration was determined (BCA-Kit; Pierce) and aliquots stored at −80° C. or in liquid nitrogen for long-term storage.
# Receptor Binding Experiments
# All receptor binding experiments were carried out in the corresponding assay buffer in a total volume of 200 μL in the presence of various concentrations of test compound (10^−5 M to 10^−9 M, tenfold serial dilution, duplicate determinations). The assays were terminated by filtration on polyethylenimine (PEI 0.1% or 0.3%) presoaked Packard Unifilter Plates (GF/C or GF/B) with a Tomtec MachIII U 96 well-plate harvester. After the plates had been dried for 2 hours at 55° C. in a drying chamber scintillation cocktail (BetaPlate Scint; PerkinElmer) was added. Radioactivity was measured in a Microbeta Trilux two hours after the addition of the scintillation mixture.
# 5-HT6 Receptor Binding Assay
# HEK293 cells stably expressing the h-5-HT6 receptor (NCBI Reference Sequence XM 001435) were cultured in RPMI1640 medium supplemented with 25 mM HEPES, 10% fetal calf serum and 1-2 mM glutamine. The membrane preparation was performed as described above. […] On the day of the assay, the membranes were thawed, diluted in assay buffer (50 mM Tris-HCl, 5 mM CaCl2, 0.1% ascorbic acid, 10 μM pargyline, pH 7.4) to a concentration of 8 μg protein/assay and homogenized by gentle vortexing. […] Non-specific binding was defined with 1 μM methiothepin. The binding reaction was carried out for 3.5 hours at room temperature. During the incubation, the plates were shaken on a plate shaker at 100 rpm and terminated by filtration on Packard Unifilter GF/C (0.1% PEI) plates, followed by 2 wash cycles with ice-cold 50 mM Tris-HCl, 5 mM CaCl2.
# Data derived from liquid scintillation counting were analyzed by iterative non-linear regression analysis with the use of the Statistical Analysis System (SAS): a program similar to “LIGAND” as described by Munson and Rodbard (Anal. Biochem. 1980, 107, 220-239). Fitting was performed according to formulae described by Feldman (Anal. Biochem. 1972, 48, 317-338). IC50, nH and Ki values were expressed as geometrical mean.
# The results of the receptor binding studies are expressed as receptor binding constants Ki(5-HT6) as described herein before, and given in Table 5.
# T1 sequence (P50406 whole entry): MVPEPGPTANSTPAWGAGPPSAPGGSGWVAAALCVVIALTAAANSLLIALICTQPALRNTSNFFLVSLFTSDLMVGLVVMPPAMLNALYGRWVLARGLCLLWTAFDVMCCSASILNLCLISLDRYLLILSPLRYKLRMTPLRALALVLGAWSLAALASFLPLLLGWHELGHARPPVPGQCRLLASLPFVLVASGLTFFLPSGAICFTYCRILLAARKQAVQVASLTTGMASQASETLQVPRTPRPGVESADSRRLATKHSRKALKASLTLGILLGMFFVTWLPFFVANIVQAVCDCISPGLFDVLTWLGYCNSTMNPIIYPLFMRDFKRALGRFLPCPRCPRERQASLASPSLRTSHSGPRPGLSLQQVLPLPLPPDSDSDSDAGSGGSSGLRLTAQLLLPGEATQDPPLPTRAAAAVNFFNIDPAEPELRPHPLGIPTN
row,Structure (SMILES),Ki [µM]
1,"O=C1CC2CNCCN2c2ccc(NS(=O)(=O)c3ccccc3-c3ccccc3)cc2N1 (stereo not shown) [Example 97, N-(6-oxo-1,2,3,4,4a,5,6,7-octahydropyrazino[1,2-a][1,5]benzodiazepin-9-yl)biphenyl-2-sulfonamide]",0.0024
2,"Cc1ccccc1S(=O)(=O)Nc1ccc2c(c1)NC(=O)CC1CNCCN21 (stereo not shown) [Example 98, 2-methyl-N-(6-oxo-1,2,3,4,4a,5,6,7-octahydropyrazino[1,2-a][1,5]benzodiazepin-9-yl)benzenesulfonamide]",0.0224
3,"Cc1ccc(S(=O)(=O)Nc2ccc3c(c2)NC(=O)CC2CNCCN32)cc1 (stereo not shown) [Example 99, 4-methyl-N-(6-oxo-1,2,3,4,4a,5,6,7-octahydropyrazino[1,2-a][1,5]benzodiazepin-9-yl)benzenesulfonamide]",0.0221
4,"O=C1CC2CNCCN2c2ccc(NS(=O)(=O)c3ccc(Cl)cc3)cc2N1 (stereo not shown) [Example 102, 4-chloro-N-(6-oxo-1,2,3,4,4a,5,6,7-octahydropyrazino[1,2-a][1,5]benzodiazepin-9-yl)benzenesulfonamide]",0.0092
5,"O=C1CC2CNCCN2c2ccc(NS(=O)(=O)c3ccccc3F)cc2N1 (stereo not shown) [Example 103, 2-fluoro-N-(6-oxo-1,2,3,4,4a,5,6,7-octahydropyrazino[1,2-a][1,5]benzodiazepin-9-yl)benzenesulfonamide]",0.0299
6,"COc1ccccc1S(=O)(=O)Nc1ccc2c(c1)NC(=O)CC1CNCCN21 (stereo not shown) [Example 106, 2-methoxy-N-(6-oxo-1,2,3,4,4a,5,6,7-octahydropyrazino[1,2-a][1,5]benzodiazepin-9-yl)benzenesulfonamide]",0.026
7,"O=C1CC2CNCCN2c2ccc(NS(=O)(=O)c3cccs3)cc2N1 (stereo not shown) [Example 109, N-(6-oxo-1,2,3,4,4a,5,6,7-octahydropyrazino[1,2-a][1,5]benzodiazepin-9-yl)thiophene-2-sulfonamide]",0.0556
8,"O=C1CC2CNCCN2c2ccc(NS(=O)(=O)c3c(Cl)cccc3Cl)cc2N1 (stereo not shown) [Example 119, 2,6-dichloro-N-(6-oxo-1,2,3,4,4a,5,6,7-octahydropyrazino[1,2-a][1,5]benzodiazepin-9-yl)benzenesulfonamide]",0.0378
9,"N#Cc1ccc(S(=O)(=O)Nc2ccc3c(c2)NC(=O)CC2CNCCN32)cc1 (stereo not shown) [Example 121, 4-cyano-N-(6-oxo-1,2,3,4,4a,5,6,7-octahydropyrazino[1,2-a][1,5]benzodiazepin-9-yl)benzenesulfonamide]",0.621
10,"O=C1CC2CNCCN2c2ccc(NS(=O)(=O)c3c(F)cccc3F)cc2N1 (stereo not shown) [Example 123, 2,6-difluoro-N-(6-oxo-1,2,3,4,4a,5,6,7-octahydropyrazino[1,2-a][1,5]benzodiazepin-9-yl)benzenesulfonamide]",0.0583
11,"O=C1CC2CNCCN2c2ccc(NS(=O)(=O)c3cccc4ccccc34)cc2N1 (stereo not shown) [Example 124, N-(6-oxo-1,2,3,4,4a,5,6,7-octahydropyrazino[1,2-a][1,5]benzodiazepin-9-yl)napthalene-1-sulfonamide]",0.0068
12,"Cc1ccc(C)c(S(=O)(=O)Nc2ccc3c(c2)NC(=O)CC2CNCCN32)c1 (stereo not shown) [Example 125, 2,5-dimethyl-N-(6-oxo-1,2,3,4,4a,5,6,7-octahydropyrazino[1,2-a][1,5]benzodiazepin-9-yl)benzenesulfonamide]",0.0156
13,"O=C1CC2CNCCN2c2ccc(NS(=O)(=O)c3ccc(Cl)s3)cc2N1 (stereo not shown) [Example 127, 5-chloro-N-(6-oxo-1,2,3,4,4a,5,6,7-octahydropyrazino[1,2-a][1,5]benzodiazepin-9-yl)thiophene-2-sulfonamide]",0.0443
14,"O=C1CC2CNCCN2c2ccc(NS(=O)(=O)c3ccc4ccccc4c3)cc2N1 (stereo not shown) [Example 128, N-(6-oxo-1,2,3,4,4a,5,6,7-octahydropyrazino[1,2-a][1,5]benzodiazepin-9-yl)naphthalene-2-sulfonamide]",0.0043
15,"Cc1cc(C)cc(S(=O)(=O)Nc2ccc3c(c2)NC(=O)CC2CNCCN32)c1 (stereo not shown) [Example 129, 3,5-dimethyl-N-(6-oxo-1,2,3,4,4a,5,6,7-octahydropyrazino[1,2-a][1,5]benzodiazepin-9-yl)benzenesulfonamide]",0.0132

# Other lines, results leading:
row,Ki [µM],Structure (SMILES)
1,0.0475,"Cc1cccc(S(=O)(=O)Nc2ccc3c(c2)NC(=O)CC2CNCCN32)c1 (stereo not shown) [Example 100, 3-methyl-N-(6-oxo-1,2,3,4,4a,5,6,7-octahydropyrazino[1,2-a][1,5]benzodiazepin-9-yl)benzenesulfonamide]"
2,0.0223,"O=C1CC2CNCCN2c2ccc(NS(=O)(=O)c3cccc(Cl)c3)cc2N1 (stereo not shown) [Example 101, 3-chloro-N-(6-oxo-1,2,3,4,4a,5,6,7-octahydropyrazino[1,2-a][1,5]benzodiazepin-9-yl)benzenesulfonamide]"
3,0.0596,"O=C1CC2CNCCN2c2ccc(NS(=O)(=O)c3cccc(F)c3)cc2N1 (stereo not shown) [Example 104, 3-fluoro-N-(6-oxo-1,2,3,4,4a,5,6,7-octahydropyrazino[1,2-a][1,5]benzodiazepin-9-yl)benzenesulfonamide]"
4,0.0208,"O=C1CC2CNCCN2c2ccc(NS(=O)(=O)c3ccc(F)cc3)cc2N1 (stereo not shown) [Example 105, 4-fluoro-N-(6-oxo-1,2,3,4,4a,5,6,7-octahydropyrazino[1,2-a][1,5]benzodiazepin-9-yl)benzenesulfonamide]"
5,0.022,"COc1cccc(S(=O)(=O)Nc2ccc3c(c2)NC(=O)CC2CNCCN32)c1 (stereo not shown) [Example 107, 3-methoxy-N-(6-oxo-1,2,3,4,4a,5,6,7-octahydropyrazino[1,2-a][1,5]benzodiazepin-9-yl)benzenesulfonamide]"
6,0.0669,"COc1ccc(S(=O)(=O)Nc2ccc3c(c2)NC(=O)CC2CNCCN32)cc1 (stereo not shown) [Example 108, 4-methoxy-N-(6-oxo-1,2,3,4,4a,5,6,7-octahydropyrazino[1,2-a][1,5]benzodiazepin-9-yl)benzenesulfonamide]"
7,0.0183,"O=C1CC2CNCCN2c2ccc(NS(=O)(=O)c3cccc(OC(F)(F)F)c3)cc2N1 (stereo not shown) [Example 120, N-(6-oxo-1,2,3,4,4a,5,6,7-octahydropyrazino[1,2-a][1,5]benzodiazepin-9-yl)-3-(trifluoromethoxy)benzenesulfonamide]"
8,0.19,"N#Cc1cccc(S(=O)(=O)Nc2ccc3c(c2)NC(=O)CC2CNCCN32)c1 (stereo not shown) [Example 122, 3-cyano-N-(6-oxo-1,2,3,4,4a,5,6,7-octahydropyrazino[1,2-a][1,5]benzodiazepin-9-yl)benzenesulfonamide]"
9,0.0234,"O=C1CC2CNCCN2c2ccc(NS(=O)(=O)c3ccccc3C(F)(F)F)cc2N1 (stereo not shown) [Example 126, N-(6-oxo-1,2,3,4,4a,5,6,7-octahydropyrazino[1,2-a][1,5]benzodiazepin-9-yl)-2-(trifluoromethyl)benzenesulfonamide]"
10,0.0181,"O=C1CC2CNCCN2c2ccc(NS(=O)(=O)c3ccccc3OC(F)(F)F)cc2N1 (stereo not shown) [Example 130, N-(6-oxo-1,2,3,4,4a,5,6,7-octahydropyrazino[1,2-a][1,5]benzodiazepin-9-yl)-2-(trifluoromethoxy)benzenesulfonamide]"
